The test system of test [1] is primary human bronchial smooth muscle cells. The test can be described thus: CXCL10 expression with combinations of TNF-α, IL-27 and fluticasone (bDNA assay). It is filed as cell-based. The settings on record: for CXCL10 expression, factor alone: single factor alone (5 ng/ml TNF-α; 1 μg/ml linked IL-27; IFN-γ), FIG. 4. The method, then:
Primary human bronchial smooth muscle cells were cultured in the presence of 5 ng/ml TNF-αalone, 5 ng/ml TNF-α and 25 nM fluticasone; 1 μg/ml linked IL-27; 5 ng/ml TNF-α and 30 ng/ml IL-27; or 5 ng/ml TNF-α, 25 nM fluticasone, and 30 ng/ml IL-27. CXCL10 expression was determined by bDNA assay.

For test [2] the test system is unchanged. In words: Screen for factors inducing steroid resistance: CXCL10 and CD38 expression (bDNA) in bronchial smooth muscle cells with TNF-α and fluticasone. Type of test: cell-based. The settings on record: 5 ng/ml TNF-α, 25 nM fluticasone. The method, then:
In order to identify factors that induce a steroid-resistant state, an assay was set up as follows. Primary human bronchial smooth muscle cells were cultured in the presence of 5 ng/ml TNF-α and 25 nM fluticasone and a test substance. Steroid sensitivity was determined by detecting expression levels of CXCL10 (IP-10) and CD38 using a bDNA assay (QuantiGene® Plex 2.0; Panomics, Santa Clara, Calif.). Expression of each of those genes is suppressed by steroids, such as fluticasone. If a factor induces a steroid-insensitive state, expression of those genes should increase. Interferon family proteins were included as test substances as positive controls.
Using this assay, a library of over 4000 secreted and extracellular domain protein test substances were screened to identify test substances that induce a steroid-resistant state. The test substances were individually expressed in 293T cells and the cell supernatants used to test each substance in the assay.

Test [3] has the same test system. In words: Dose dependence of IL-27-induced steroid insensitivity (CXCL10/CD38 bDNA assay). It is filed as cell-based. The note with it: 5 ng/ml TNF-α, 25 nM fluticasone. The protocol: Primary human bronchial smooth muscle cells were cultured in the presence of 5 ng/ml TNF-α, 25 nM fluticasone, and increasing concentrations of linked IL-27 (Cat. No. 2526-IL; R&D Systems, Minneapolis, Minn.). CXCL10 and CD38 expression levels were determined by bDNA assay.

Test [4] has the same test system. The test can be described thus: CXCL10 expression with TNF-α, fluticasone and IL-12 family cytokine supernatants (bDNA assay). The settings on record: 5 ng/ml TNF-α, 25 nM fluticasone, 293T supernatant; FIG. 5. It is filed as cell-based. The method, then: Primary human bronchial smooth muscle cells were cultured in the presence of 5 ng/ml TNF-α, 25 nM fluticasone, and a supernatant from 293T cells expressing IL-27 subunit EBI3 alone, IL-27 subunit p28 alone, IL-12 (comprised of p35 and p40), IL-35 (comprised of p35 and EBI3), IL-23 (comprised of p19 and p40), or IL-27 (comprised of p28 and EBI3). CXCL10 expression was determined by bDNA assay.

Test [5] concerns primary human bronchial epithelial cells. The test can be described thus: CXCL9 (MIG) / CXCL10 induction in air-liquid interface bronchial epithelial cells (ELISA). The settings on record: normal donor; with and without 25 nM fluticasone; FIG. 9. Type of test: cell-based.
Test [6] concerns primary bronchial smooth muscle cells (BSMCs). In words: WSX-1 expression in bronchial smooth muscle cells treated with factors (quantitative RT-PCR). It is filed as cell-based, human. The note with it: 5 ng/ml TNF-α; FIG. 7. The method, then:
The effect of various factors on WSX-1 expression was then determined in primary bronchial smooth muscle cells (BSMCs). The BSMCs were treated with 5 ng/ml TNF-α, 10 ng/ml IFN-γ, 5 ng/ml TNF-α and 10 ng/ml IFN-γ, or 5 ng/ml TNF-α and 10 ng/ml IFN-γ and 25 nM fluticasone. WSX-1 expression was determined by quantitative RT-PCR and normalized to RPL19.

Test [7] concerns the target T1, human IL-27 (Homo sapiens, UniProt Q14213+Q8NEV9).
T1 construct: made in house
T1 sequence (Q8NEV9 29-243): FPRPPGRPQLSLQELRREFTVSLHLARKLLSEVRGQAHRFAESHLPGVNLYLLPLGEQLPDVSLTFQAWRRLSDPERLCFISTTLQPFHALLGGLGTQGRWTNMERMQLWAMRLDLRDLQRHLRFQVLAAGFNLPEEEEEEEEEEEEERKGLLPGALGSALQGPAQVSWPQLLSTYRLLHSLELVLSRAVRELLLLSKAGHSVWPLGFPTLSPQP
T1 sequence (Q14213 21-229): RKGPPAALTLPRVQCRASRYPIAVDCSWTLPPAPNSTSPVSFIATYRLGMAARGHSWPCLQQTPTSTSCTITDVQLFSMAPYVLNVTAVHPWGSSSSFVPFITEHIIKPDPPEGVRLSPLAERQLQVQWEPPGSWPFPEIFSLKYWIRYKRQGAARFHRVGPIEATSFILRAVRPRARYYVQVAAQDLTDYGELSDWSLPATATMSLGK
In words: Inhibition of IL-27-induced CXCL10 expression in bronchial smooth muscle cells (ELISA). It is filed as cell-based. The note with it: 0.2 to 20 μg/mL preincubated with 5 ng/mL linked or native human IL-27 and 5 ng/mL TNF-α; FIG. 11. The method, then:
Various concentrations of an IL-27 antagonist, WSX-1 ECD (0.2 to 20 μg/mL), were preincubated with 5 ng/mL of human IL-27 in the presence of 5 ng/mL of human TNF-α. Both linked and native human IL-27 were tested. Human linked IL-27 was obtained from R&D Systems and is produced with a linker between the p28 subunit and the EBI3 subunit. Native IL-27 was produced and purified in house by transfecting mammalian cells with separate vectors expressing each subunit and purifying the resulting p28/EBI3 (IL-27) heterodimer from the cell culture supernatant. Following the preincubation of WSX-1 ECD with IL-27 and TNF-α, the stimulus was added to primary human bronchial smooth muscle cells in culture. CXCL10 expression was determined by ELISA.
Various concentrations of a polyclonal antibody against human IL-27 (0.4 to 50 μg/mL; R&D Systems) were preincubated with 10 ng/mL of native human IL-27 in the presence of 5 ng/mL of human TNF-α. Following the preincubation of polyclonal antibody with IL-27 and TNF-α, the stimulus was added to primary human bronchial smooth muscle cells in culture. CXCL10 expression was determined by ELISA.

As for `C[C@@H]1C[C@H]2[C@@H]3C[C@H](F)C4=CC(=O)C=C[C@]4(C)[C@@]3(F)[C@@H](O)C[C@]2(C)[C@@]1(O)C(=O)SCF` [fluticasone, reference compound], the “effect on CXCL10 expression induced by IL-27 and TNF-α” value in test [1] (5 ng/ml TNF-α, 25 nM fluticasone, 30 ng/ml IL-27) is recorded as “no effect”.
“IFN-γ: interferon family protein, positive control in the screen”: the “CXCL10 expression, factor alone” value in test [1] was “did not induce CXCL10 expression”.
Take “IL-27: heterodimeric cytokine comprising the subunits p28 and EBI3; linked IL-27 from R&D Systems (Cat. No. 2526-IL)”: the “fold-change in CXCL10 expression (screen)” value in test [2] (293T supernatant of test substance, FIG. 1) is reported as “positive data points”. For the same molecule, the “effect on CD38 expression (two retests)” value in test [2] (FIG. 2) was “positive data points”. Besides, in test [3] (increasing concentrations of linked IL-27), the “steroid insensitivity (CXCL10 expression in the presence of fluticasone)” value was “induced steroid-insensitivity in a dose-dependent manner”. Besides, the “expression of CD38” value in test [3] (increasing concentrations of linked IL-27, data not shown) is “increased with increasing concentration”. In addition, the EC50 in test [3] (linked IL-27, FIG. 3, read-out: EC50 for CXCL10 expression in the presence of fluticasone) worked out at 0.372 nM. In addition, the “CXCL10 expression, in combination with TNF-α” value in test [1] (5 ng/ml TNF-α and 30 ng/ml IL-27) is given as “very high CXCL10 expression”. In addition, the “CXCL10 expression, factor alone” value in test [1] is on record as “did not affect expression of CXCL10”. In addition, the “synergistic increase of CXCL10 expression in the presence of TNF-α and fluticasone” value in test [4] was “synergistically increased CXCL10 expression”. Besides, the “steroid sensitivity of IL-27 induction of CXCL10 expression” value in test [5] is “steroid-insensitive at all concentrations of IL-27”.
Regarding TNF-α, the “CXCL10 expression, factor alone” value in test [1] is listed as “increased expression of CXCL10”. In addition, the “WSX-1 expression normalized to RPL19” value in test [6] was “up-regulated”.

B1: WSX-1 ECD: IL-27 antagonist; WSX-1 polypeptide that lacks the intracellular and transmembrane domains (protein, UniProt Q6UWB1 33-516, looked up)
extracellular domain: QGSAGPLQCYGVGPLGDLNCSWEPLGDLGAPSELHLQSQKYRSNKTQTVAVAAGRSWVAIPREQLTMSDKLLVWGTKAGQPLWPPVFVNLETQMKPNAPRLGPDVDFSEDDPLEATVHWAPPTWPSHKVLICQFHYRRCQEAAWTLLEPELKTIPLTPVEIQDLELATGYKVYGRCRMEKEEDLWGEWSPILSFQTPPSAPKDVWVSGNLCGTPGGEEPLLLWKAPGPCVQVSYKVWFWVGGRELSPEGITCCCSLIPSGAEWARVSAVNATSWEPLTNLSLVCLDSASAPRSVAVSSIAGSTELLVTWQPGPGEPLEHVVDWARDGDPLEKLNWVRLPPGNLSALLPGNFTVGVPYRITVTAVSASGLASASSVWGFREELAPLVGPTLWRLQDAPPGTPAIAWGEVPRHQLRGHLTHYTLCAQSGTSPSVCMNVSGNTQSVTLPDLPWGPCELWVTASTIAGQGPPGPILRLHLPDNTLRWK
modifications: extracellular domain
notes: IL-27 antagonist; WSX-1 polypeptide that lacks the intracellular and transmembrane domains
For the molecule B1, the “inhibition of IL-27-induced expression of CXCL10” value in test [7] is recorded as “inhibited IL-27-induced expression of CXCL10”.

The values above are taken from patent US20130189262A1, “IL-27 Antagonists for Treating Inflammatory Diseases” (Five Prime Therapeutics, Inc., priority 2011, published 2013).
